The numbers were not newly measured in patent US12268209B2, “Liquid sulfonylurea-containing herbicidal compositions” (Mitsui AgriScience International S.A./N.V., priority 2014, dated 2025), which cites them from elsewhere.

The conditions of data set [1]: after 5 days, depending on the selected solvent; 52° C.
For data set [2] the following is noted: after one week of storage at 40° C.; compositions of WO 2007/027863 A2.

Structures are written as SMILES.

For `COC(=O)c1ccccc1S(=O)(=O)NC(=O)Nc1nc(C)nc(OC)n1` [metsulfuron-methyl, methyl 2-[[[[(4-methoxy-6-methyl-1,3,5-triazin-2-yl)amino]carbonyl]amino]sulfonyl]benzoate], in data set [1], the metsulfuron methyl lost is reported as 25-30%. Regarding `COC(=O)c1ccccc1S(=O)(=O)NC(=O)N(C)c1nc(C)nc(OC)n1` [tribenuron-methyl, methyl 2-[[[[N-(4-methoxy-6-methyl-1,3,5-triazin-2-yl)-N-methylamino]carbonyl]amino]-sulfonyl]benzoate], in data set [2], the tribenuron-methyl lost entry was “up to 66.5%”.
